Where a name gives a salt, the structure may show the parent alone. Read-outs that look alike come from different tables or passages of the source.
What was measured:
[1] = test system: CM-AS16; test: cells; set-up: CCK-8 anti-proliferation assay in conjunctival melanoma cell lines
Description: (§1) The anti-proliferative activity of our in-house drugs against CM-AS16 cells was assessed using the Cell Counting Kit-8 (CCK-8) assay at a final concentration of 10 μM (Fig. 1A). […] These analogues were Chinese herbal monomers harbouring the same bisbenzylisoquinoline core. […] Fangchinoline harbours an exposed hydroxy group, which is suitable for synthesizing functionalized probes and subsequent target identification. […] Next, we assessed the anti-proliferative activity of fangchinoline against three other CM cell lines obtained from patients with a typical NRAS (CRMM2) or BRAF mutation (CRMM1 and CM2005.1)[26],[27]. […] To determine whether fangchinoline could suppress CM properties in vivo, an immunodeficient NCG mice xenograft model was created by subcutaneous inoculation of CM-AS16 cells. NCG mice comes from knocking out the Prkdc and IL2rg genes in NOD/ShiltJ mice through Crispr Cas9 technology. […] The average tumour volume of the control group was 204 mm^3, which was higher than that of the treated groups (50 mg/kg/day fangchinoline, tumour volume: […] CRMM1, CRMM2 and CM2005.1 were generously provided by Professor Martine J. Jager (Leiden University Medical Center, Leiden, The Netherlands)[47] and CM-AS16 was provided by Professor Renbin Jia (Shanghai Ninth People’s Hospital, Shanghai, China). A375 and HEK293T were obtained from American Type Culture Collection. CM-AS16 and CM2005.1 were maintained in 1640H medium, CRMM1 and CRMM2 were maintained in F12K medium, A375 and HEK293T were maintained in DMEM medium, and MRC5 was maintained in MEM medium. All mediums were supplemented with 10% FBS. Cells were cultured at 37 °C in an incubator, in a humidified atmosphere with 5% CO2, periodically checked for mycoplasma-free and validated by short tandem repeats (STR) DNA analysis at BGI Tech Solutions (Beijing Liuhe) Co., Limited.

[2] = test system: CM2005.1; test: cells; set-up: CCK-8 anti-proliferation assay in conjunctival melanoma cell lines
Description: as §1

[3] = test system: CRMM1; test: cells; set-up: CCK-8 anti-proliferation assay in conjunctival melanoma cell lines
Description: as §1

[4] = test system: CRMM2; test: cells; set-up: CCK-8 anti-proliferation assay in conjunctival melanoma cell lines
Description: as §1

[5] = in vitro; set-up: CCK-8 growth inhibition of MRC5 normal fibroblasts (counter-screen); settings: human, mrc5 cells
Description: as §1

[6] = target: T1, far upstream element binding protein 2 (FUBP2) (Homo sapiens, UniProt Q92945); test: microscale thermophoresis (MST, Monolith NT.[…]) with EGFP-labelled FUBP2 from transfected HEK293T cells
T1 construct: gene KHSRP; FUBP2 labelled with enhanced green fluorescent protein, obtained from HEK293T cells transfected with plasmids
T1 sequence (Q92945 2-711): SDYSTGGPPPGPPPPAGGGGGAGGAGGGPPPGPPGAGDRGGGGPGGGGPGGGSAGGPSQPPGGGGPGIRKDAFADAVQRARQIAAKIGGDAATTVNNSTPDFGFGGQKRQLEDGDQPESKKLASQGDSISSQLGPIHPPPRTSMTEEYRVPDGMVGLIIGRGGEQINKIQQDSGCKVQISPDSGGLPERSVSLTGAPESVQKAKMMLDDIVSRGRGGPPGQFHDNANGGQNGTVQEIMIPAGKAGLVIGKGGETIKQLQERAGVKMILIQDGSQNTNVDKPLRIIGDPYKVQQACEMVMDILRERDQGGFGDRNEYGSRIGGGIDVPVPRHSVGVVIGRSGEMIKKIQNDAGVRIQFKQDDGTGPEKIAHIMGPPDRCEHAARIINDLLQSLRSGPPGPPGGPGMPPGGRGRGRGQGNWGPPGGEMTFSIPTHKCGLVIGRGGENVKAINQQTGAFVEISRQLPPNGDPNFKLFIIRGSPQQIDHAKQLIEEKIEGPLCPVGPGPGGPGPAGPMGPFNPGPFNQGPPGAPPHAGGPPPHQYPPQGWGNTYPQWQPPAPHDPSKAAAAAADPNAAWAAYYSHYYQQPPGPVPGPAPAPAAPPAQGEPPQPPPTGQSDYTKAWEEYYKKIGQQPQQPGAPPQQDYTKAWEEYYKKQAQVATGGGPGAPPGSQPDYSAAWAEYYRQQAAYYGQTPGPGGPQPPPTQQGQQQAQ

[7] = CM-AS16; read-out: IC50 (μM) CM-AS16
[8] = CM2005.1; read-out: IC50 (μM) CM2005.1
[9] = Homo sapiens, CRMM-1; read-out: IC50 (μM) CRMM1
[10] = Homo sapiens, CRMM-2; read-out: IC50 (μM) CRMM2

| Structure (SMILES) | IC50 [1, 7] | IC50 [2, 8] | IC50 [3, 9] | IC50 [4, 10] | CC50 ([5]; read-out: IC50 (μM) MRC5) | IC50 ([1]; CM-AS16, read-out: IC50 (μM) CM-AS16) | IC50 ([2]; CM2005.1, read-out: IC50 (μM) CM2005.1) | IC50 ([3]; Homo sapiens, CRMM-1, read-out: IC50 (μM) CRMM1) | IC50 ([4]; Homo sapiens, CRMM-2, read-out: IC50 (μM) CRMM2) | CC50 [5] | Kd [6] |
| --- | --- | --- | --- | --- | --- | --- | --- | --- | --- | --- | --- |
| Cn1cnc2c(F)c(Nc3ccc(Br)cc3F)c(C(=O)NOCCO)cc21 [MEK162] | 0.0077 ± 0.0016 µM | 0.068 ± 0.008 µM | > 50 µM | 0.0136 ± 0.0006 µM | 6.32 ± 0.16 µM | – | – | – | – | – | – |
| COc1cc2c3cc1Oc1c(OC)c(OC)cc4c1[C@@H](Cc1cccc(c1)Oc1ccc(c(O)c1)C[C@@H]3N(C)CC2)N(C)CC4 [Berbamine Hydrochloride] | – | – | – | – | – | 8.46 ± 0.22 µM | 20.2 ± 0.49 µM | 8.16 ± 0.13 µM | 4.14 ± 0.5 µM | 9.03 ± 0.22 µM | – |
| COc1ccc2cc1Oc1ccc(cc1)C[C@H]1c3c(cc4c(c3Oc3cc5c(cc3OC)CCN(C)[C@@H]5C2)OCO4)CCN1C [Cepharanthine] | 1.63 ± 0.24 µM | 7.44 ± 0.08 µM | 4.69 ± 0.17 µM | 0.792 ± 0.013 µM | 8.44 ± 0.54 µM | – | – | – | – | – | – |
| COc1ccc2cc1Oc1ccc(cc1)C[C@H]1c3cc(c(OC)cc3CCN1C)Oc1c(O)c(OC)cc3c1[C@H](C2)N(C)CC3 [fangchinoline] | 5.67 ± 0.17 µM | 7.4 ± 0.45 µM | 2.68 ± 0.07 µM | 3.6 ± 0.05 µM | 4.35 ± 0.11 µM | – | – | – | – | – | 246 µM |
| COc1ccc2cc1Oc1ccc(cc1)C[C@H]1c3cc(c(OC)cc3CCN1C)Oc1c(OC)c(OC)cc3c1[C@H](C2)N(C)CC3 [Tetrandrine] | 3.2 ± 0.06 µM | 9.7 ± 0.07 µM | 4.77 ± 0.24 µM | 2.16 ± 0.02 µM | 5.75 ± 0.11 µM | – | – | – | – | – | – |

Reference: PMC8027391, “Fangchinoline suppresses conjunctival melanoma by directly binding FUBP2 and inhibiting the homologous recombination pathway” (Cell Death & Disease, 2021)
